Literature values in US20130203688A1, “SUGAR PLANT DERIVED BY-PRODUCTS AND METHODS OF PRODUCTION THEREOF” (FÉDÉRATION DES PRODUCTEURS ACÉRI-COLES DU QUÉBEC, priority 2010, published 2013).

COc1ccc(C2OC(=O)C(O)(Cc3ccc(OC4OC(C)C(O)C(O)C4O)c(OC)c3)C2CO)cc1OC (centres unmarked) [compound 7]
Properties: α-glucosidase-inhibiting action (α-glucosidase): α- glucosidase- inhibiting
Properties: human HL-60 proliferation-inhibiting action (human HL-60): human HL-60 proliferation- inhibiting

COc1cc(C2c3c(cc(OC)c(O)c3OC)CC(CO)C2CO)cc(OC)c1O (centres unmarked) [compound 8, Lyoniresinol]
Properties: tyrosinase inhibitory (tyrosinase): tyrosinase inhibitory

COc1cc(/C=C/CO)cc(OC)c1O [compound 10, Syringenin]
Properties: TNFα-secretion inhibitor (TNFα secretion): TNFα- secretion inhibitor

Oc1ccccc1O [compound 11, 1,2-Benzenediol(catechol)]
Properties: antibacterial (bacteria): Antibacterial
Properties: tyrosinase inhibitory (tyrosinase): inhibit the activity of tyrosinase
Properties: inhibit the synthesis of melanin (synthesis of melanin): inhibit the synthesis of melanin

COc1cc(C2Oc3c(OC)cc(CCCO)cc3C2CO)ccc1O (centres unmarked) [compound 15]
Properties: antitumor (tumor): Antitumor/
